{
  "source": "patent US10947542B2",
  "about": "“Nucleic acid simultaneously inhibiting expression of AR gene and mTOR gene” (CURIGIN CO., LTD., priority 2017, dated 2021)",
  "key": {"DU145 cell line": {"tested_on": "DU145 cell line", "assay": "Cancer cell death by double target siRNA and anticancer agent, MTT cell viability", "type": "cell-based", "protocol": "(§1) After incubating the DU145 cell line and the H460 cell line in 6-well plates respectively, we transfected the double target siRNA set 1 (si-AT1) according to the present disclosure thereto. Then, as 48 hours lapsed, the cells were treated with cisplatin 50 uM, etoposide 20 uM or Taxol 1 uM and were incubated for 16 hours. Thereafter, the cells were treated with 5 mg/mL MTT (Promega, Ltd.) and incubated for 4 hours, and then the medium was removed. The cells were treated with 150 μl of solubilization solution and stop solution and then were incubated at 37° C. for 4 hours. Absorbance of the reaction solution was measured at 570 nm and cell viability was calculated using the following equation. Cell viability=(Absorbance of experiment group at 570 nm/Absorbance of control at […])×100(%) [Equation 1]"}, "H460 cell line": {"tested_on": "H460 cell line", "assay": "Cancer cell death by double target siRNA and anticancer agent, MTT cell viability", "type": "cell-based", "protocol": "as §1"}, "mTOR gene": {"tested_on": "mTOR gene", "assay": "mTOR gene expression inhibition by siRNA transfection, RT-PCR/qPCR of mRNA (PC3 and h460 cell lines)", "type": "cell-based, human", "details": "80 pmole siRNA per well, 48 hours after transfection, normalized to GAPDH", "protocol": "(§2) We dispensed PC3 and h460 cell lines into 12-well plates, and incubated the same at 37° C. and 5% CO2 condition in RPMI medium (Hyclone company) with 10% FBS (Hyclone company) until a cell confluent reaches 50%. Thereafter, 3 μl of lipofectamine 3000 (Invitrogen, Carlsbad, Calif., USA) was used to transfect the double target siRNA set 1 prepared in the Example 1 (si-AT 1) to the wells in which the cells were cultured at 80 pmole per well. Thus, AR and mTOR were knocked down simultaneously. In addition, siRNA to AR and siRNA to mTOR were transfected respectively, as listed in the following table 3, as a positive control. At 48 hours after the transfection, cells were crushed, and total RNA was extracted using GeneJET RNA Purification Kit (Invitrogen). While using the extracted total RNA as a template, the same was subjected to reverse transcription into cDNA via RT-PCR reaction. Then, mRNA expression levels of AR and mTOR by each siRNA and by the double target siRNA set 1 (si-AT1) according to the present disclosure was identified via q-PCR reaction. To identify the mRNA expression levels, the mRNA of AR and mTOR in the cell lysates knocked down by PCR conditions of Table 6 was converted to cDNA using the primer set from Table 4 and the reaction mixture from Table 5. […]"}, "AR gene": {"tested_on": "AR gene", "assay": "AR gene expression inhibition by siRNA transfection, RT-PCR/qPCR of mRNA (PC3 and h460 cell lines)", "type": "cell-based, human", "details": "80 pmole siRNA per well, 48 hours after transfection, normalized to GAPDH", "protocol": "as §2"}, "[1]": {"details": "anticancer agent without double target siRNA, cisplatin 50 uM, etoposide 20 uM or Taxol 1 uM, 16 hours"}, "[2]": {"details": "siRNA transfected, after 48 hours Taxol 1 uM for 16 hours"}, "[3]": {"details": "siRNA transfected, after 48 hours etoposide 20 uM for 16 hours"}},
  "data": [
    {"molecule": "N.N.[Cl][Pt][Cl]", "note": "[cisplatin, reference compound]", "values": [
      {"measurement": "cancer cell death (cell viability, MTT)", "setting": "DU145 cell line; [1]", "result": "apoptosis effect was not achieved"}
    ]},
    {"molecule": "COc1cc([C@@H]2c3cc4c(cc3[C@@H](O[C@@H]3O[C@@H]5CO[C@@H](C)O[C@H]5[C@H](O)[C@H]3O)[C@H]3COC(=O)[C@H]23)OCO4)cc(OC)c1O", "note": "[etoposide, reference compound]", "values": [
      {"measurement": "cancer cell death (cell viability, MTT)", "setting": "DU145 cell line; [1]", "result": "a little anticancer activity"}
    ]},
    {"molecule": "CC(=O)O[C@H]1C(=O)[C@@]2(C)[C@H]([C@H](OC(=O)c3ccccc3)[C@]3(O)C[C@H](OC(=O)[C@H](O)[C@@H](NC(=O)c4ccccc4)c4ccccc4)C(C)=C1C3(C)C)[C@]1(OC(C)=O)CO[C@@H]1C[C@@H]2O", "note": "[taxol, reference compound]", "values": [
      {"measurement": "cancer cell death (cell viability, MTT)", "setting": "DU145 cell line; [1]", "result": "a little anticancer activity"}
    ]},
    {"molecule": "si-AT1: AR and mTOR double target double strand siRNA, 20mer, SEQ ID NOs: 1 and 2 (chain 1 GCUGCUGCUGCUGCCUGGGG; chain 2 CCCCAUGCAGCUGCAGCAGC; listed as RNA, chemistry not given here)", "values": [
      {"measurement": "cancer cell death (cell viability, MTT)", "setting": "DU145 cell line; siRNA alone (\"no treat\", no anticancer agent)", "result": "caused apoptosis"},
      {"measurement": "cancer cell death (cell viability, MTT)", "setting": "DU145 cell line; [2]", "result": "significant improvement in the DU145 cell death"},
      {"measurement": "cancer cell death (cell viability, MTT)", "setting": "DU145 cell line; siRNA transfected, after 48 hours cisplatin 50 uM for 16 hours", "result": "induced the apoptosis"},
      {"measurement": "cancer cell death (cell viability, MTT)", "setting": "DU145 cell line; [3]", "result": "significant improvement in the DU145 cell death"},
      {"measurement": "cancer cell death (cell viability, MTT)", "setting": "H460 cell line; siRNA alone", "result": "showed apoptosis effect"},
      {"measurement": "cancer cell death (cell viability, MTT)", "setting": "H460 cell line; [2]", "result": "significant anticancer activity"},
      {"measurement": "cancer cell death (cell viability, MTT)", "setting": "H460 cell line; [3]", "result": "significant anticancer activity"},
      {"measurement": "mRNA expression level of mTOR", "setting": "mTOR gene; PC3 cells", "result": "reduced"},
      {"measurement": "mRNA expression level of mTOR", "setting": "mTOR gene; h460 cell line", "result": "reduced"},
      {"measurement": "mRNA expression level of AR", "setting": "AR gene; PC3 cells", "result": "reduced"},
      {"measurement": "mRNA expression level of AR", "setting": "AR gene; h460 cell line", "result": "reduced"}
    ]}
  ]
}
